Measurements from ChEMBL document CHEMBL2073837, “Inhibitory effects of pomelo on the metabolism of tacrolimus and the activities of CYP3A4 and P-glycoprotein” (Drug Metab Dispos, 2004).

What was measured:
[1] = target: T1, ATP-dependent translocase ABCB1 (Homo sapiens, UniProt P08183); test: TP_TRANSPORTER: transepithelial transport of digoxin (apical to basal) (Digoxin: 20-30uM) in MDR1-expressing LLC-GA5-COL150 cell; format: functional, cell-based; details: pig
[2] = target: T1, ATP-dependent translocase ABCB1; test: TP_TRANSPORTER: transepithelial transport of tacrolimus (apical to basal) (Tacrolimus: 1.38-1.48uM) in MDR1-expressing LLC-GA5-COL150 cell; format: functional, cell-based; details: pig

T1 sequence (P08183 whole entry): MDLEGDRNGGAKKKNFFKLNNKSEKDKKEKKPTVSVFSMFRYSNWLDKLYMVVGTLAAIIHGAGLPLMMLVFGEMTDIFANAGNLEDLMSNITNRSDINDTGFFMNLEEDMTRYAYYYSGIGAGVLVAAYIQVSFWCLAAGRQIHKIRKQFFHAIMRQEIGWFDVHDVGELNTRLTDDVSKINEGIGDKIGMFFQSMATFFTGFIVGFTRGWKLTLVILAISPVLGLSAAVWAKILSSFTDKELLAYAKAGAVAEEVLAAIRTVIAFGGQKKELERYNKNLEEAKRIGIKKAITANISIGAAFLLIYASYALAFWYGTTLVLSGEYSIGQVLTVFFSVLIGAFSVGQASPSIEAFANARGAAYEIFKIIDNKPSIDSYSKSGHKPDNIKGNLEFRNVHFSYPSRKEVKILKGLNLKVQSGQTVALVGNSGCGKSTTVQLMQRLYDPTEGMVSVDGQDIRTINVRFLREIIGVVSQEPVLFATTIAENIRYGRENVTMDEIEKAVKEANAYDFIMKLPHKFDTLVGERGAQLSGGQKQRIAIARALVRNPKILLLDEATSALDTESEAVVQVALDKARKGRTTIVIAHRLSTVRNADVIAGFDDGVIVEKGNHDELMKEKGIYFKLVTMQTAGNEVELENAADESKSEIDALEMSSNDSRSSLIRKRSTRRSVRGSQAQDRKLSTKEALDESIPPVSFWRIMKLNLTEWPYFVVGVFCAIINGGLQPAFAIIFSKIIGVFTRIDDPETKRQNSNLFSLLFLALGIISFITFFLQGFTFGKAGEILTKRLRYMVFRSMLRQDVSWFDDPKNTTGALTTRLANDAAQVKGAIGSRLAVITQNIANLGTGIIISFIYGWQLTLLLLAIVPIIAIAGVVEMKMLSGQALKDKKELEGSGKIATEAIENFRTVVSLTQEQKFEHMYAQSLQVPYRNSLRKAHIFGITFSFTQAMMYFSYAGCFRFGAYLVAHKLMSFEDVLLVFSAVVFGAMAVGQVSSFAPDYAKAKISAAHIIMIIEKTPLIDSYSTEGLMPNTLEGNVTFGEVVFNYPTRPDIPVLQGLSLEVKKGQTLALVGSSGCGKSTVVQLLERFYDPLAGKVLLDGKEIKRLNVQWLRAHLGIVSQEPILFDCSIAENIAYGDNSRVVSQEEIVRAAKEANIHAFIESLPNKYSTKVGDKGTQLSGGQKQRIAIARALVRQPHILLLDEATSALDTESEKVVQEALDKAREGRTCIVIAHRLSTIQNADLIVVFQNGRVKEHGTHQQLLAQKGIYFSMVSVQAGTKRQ

| Molecule | Activity [1] | Activity [2] |
| --- | --- | --- |
| CC[C@H]1OC(=O)[C@H](C)[C@@H](O[C@H]2C[C@@](C)(OC)[C@@H](O)[C@H](C)O2)[C@H](C)[C@@H](O[C@@H]2O[C@H](C)C[C@H](N(C)C)[C@H]2O)[C@](C)(OC)C[C@@H](C)C(=O)[C@H](C)[C@@H](O)[C@]1(C)O [CLARITHROMYCIN] | inhibitor [+] |  |
| BANPEIYU | inhibitor [+] | inhibitor [+] |
| GRAPEFRUIT JUICE | inhibitor [+] | inhibitor [+] |
